Laboratory results: patent US10570117B2, “Phenylimidazole compound” (Otsuka Pharmaceutical Factory, Inc., priority 2015, dated 2020)
≈ marks a conversion by molar mass, not a printed value. Read-outs that look alike come from different tables or passages of the source.

Key:
[1] = Solubility in gastric juice or intestinal juice model fluid (precipitation method using DMSO); assay type: physicochemical; settings: room temperature
Description: Solubility in Gastric Juice or Intestinal Juice Model Fluid
Measurement was performed by a precipitation method using DMSO. Specifically, each of the dimethyl sulfoxide (DMSO) solutions of the compounds was individually added to 1st fluid for Disintegration Test of Japanese Pharmacopoeia (pH: 1.2) or 2nd fluid for Disintegration Test of Japanese Pharmacopoeia (pH: 6.8), and the mixtures were stirred by shaking at room temperature for 24 hours. Subsequently, insoluble substances in each mixture were removed by filtration, and the UV absorption of each filtrate was measured. The obtained values were individually applied to the calibration curves of the compounds prepared in advance to calculate the concentrations of the compounds dissolved (μg/mL).

[2] = pH 1.2, simulated gastric fluid, kinetic from dmso stock, 1st fluid for Disintegration Test of Japanese Pharmacopoeia (pH: 1.2), read-out: Solubility (μg/mL) 1st fluid
[3] = pH 6.8, kinetic from dmso stock, 2nd fluid for Disintegration Test of Japanese Pharmacopoeia (pH: 6.8), read-out: Solubility (μg/mL) 2nd fluid

Row | SMILES | melting point | solubility at 24 h [1, 2] [µg/mL] | solubility at 24 h [1, 3] [µg/mL]
1 | COc1cc(-c2nc(-c3ccc(Cl)cn3)[nH]c2C)ccc1OCc1ccc(C(F)(F)F)nc1 [Example 29] | 267 to 269 °C | 3 (≈ 6.32 µM) | 0.6 (≈ 1.26 µM)
2 | COc1cc(OCc2ccc(C(F)(F)F)cn2)ccc1-c1cnc(-c2ccc(C#N)nc2)[nH]1 [Example 150, 5-[5-[2-methoxy-4-((5-(trifluoromethyl)pyridin-2-yl)methoxy)phenyl]-1H-imidazol-2-yl]picolinonitrile] | 241 to 244 °C (dec.) | 2.4 (≈ 5.32 µM) | 0.3 (≈ 0.665 µM)
3 | COc1cc(O[C@@H](C)c2ccc(C(F)(F)F)cc2)ccc1-c1[nH]c(-c2ccc(F)nc2)nc1Cl [Example 288] | 137 to 139 °C | < 0.3 | 23.4 (≈ 47.6 µM)
4 | COc1cc(OCc2cc(C(F)(F)F)ccn2)ccc1-c1c[nH]c(-c2ccc(Cl)nc2)n1 [Example 37] | 216 to 217 °C | 5.6 (≈ 12.2 µM) | 0.6 (≈ 1.3 µM)
5 | COc1cc(OCc2ccc(C(F)(F)F)cn2)ccc1-c1c[nH]c(-c2ccc(F)cn2)n1 [Example 41] | 152 to 154 °C | 23.3 (≈ 52.4 µM) | 1.3 (≈ 2.93 µM)
6 | COc1cc(-c2c[nH]c(C34CC5CC(CC(C5)C3)C4)n2)ccc1OCc1ccc(C(F)(F)F)cn1 [Example 67] | 209 to 217 °C | 93.5 (≈ 193 µM) | 0.4 (≈ 0.827 µM)
7 | COc1cc(OCc2cccc(C#N)n2)ccc1-c1cnc(C2CCC(F)(F)CC2)[nH]1 [Example 8] | 195 to 197 °C | 83.6 (≈ 197 µM) | < 0.3
8 | COc1cc(OCc2ccc(C(F)(F)F)cn2)ccc1-c1nc(-c2ccc(F)nc2)[nH]c1Br [Example 223] | 176 to 178 °C | > 105 | < 0.4
9 | COc1cc(OC(C)c2ccc(C(F)(F)F)cc2)ccc1-c1[nH]c(-c2ccc(F)nc2)nc1Cl (stereo not shown) [Example 236] | 137 to 146 °C | < 0.3 | 29.9 (≈ 60.8 µM)
10 | COc1cc(OCc2ncc(C(F)(F)F)cc2F)ccc1-c1[nH]c(-c2ccc(Cl)nc2)nc1Cl [Example 245] | 116 to 131 °C | 90.2 (≈ 176 µM) | 11.7 (≈ 22.8 µM)
11 | COc1cc(OCc2ccc(Br)cc2F)ccc1-c1c[nH]c(-c2ccc(F)nc2)n1 [Example 126] | 172 to 176 °C | 7.1 (≈ 15 µM) | 5.6 (≈ 11.9 µM)
12 | COc1cc(-c2c[nH]c(C3CCC(C)CC3)n2)ccc1OCc1ccc(C(F)(F)F)cn1 (stereo not shown) [Example 64] | 147 to 150 °C | 56.2 (≈ 126 µM) | 2.6 (≈ 5.84 µM)
13 | COc1cc(-c2nc(-c3ccc(Cl)nc3)[nH]c2C)ccc1OCc1ccc(C(F)(F)F)cn1 [Example 30] | 228 to 230 °C (dec.) | 24 (≈ 50.5 µM) | 0.6 (≈ 1.26 µM)
14 | COc1cc(-c2c[nH]c(-c3ccc(Cl)nc3)n2)ccc1OCc1ccc(C(F)(F)F)cn1 [Example 93] | > 280 °C | 10 (≈ 21.7 µM) | 0.9 (≈ 1.95 µM)
15 | COc1cc(OCc2ncccc2C#N)ccc1-c1[nH]c(C2CCC(F)(F)CC2)nc1Br [Example 184] | 160 to 161 °C | 96.3 (≈ 191 µM) | 5.8 (≈ 11.5 µM)
16 | COc1cc(OCc2ccc(C(F)(F)F)cn2)ccc1-c1c[nH]c(-c2ccc(Cl)nc2)n1 [Example 94] | 215 to 217 °C | 8.7 (≈ 18.9 µM) | 0.9 (≈ 1.95 µM)
17 | CCOc1ccc(-c2nc(-c3ccc(OCc4ccc(Br)cc4F)cc3OC)c[nH]2)cn1 [Example 84] | 181 to 184 °C |  | 
18 | COc1cc(-c2[nH]c(-c3ccc(F)nc3)nc2Cl)ccc1OCc1ccc(C(F)(F)F)nc1 [Example 177] | 202 to 204 °C |  | 
19 | COc1cc(OCc2cccnc2C(F)(F)F)ccc1-c1[nH]c(-c2ccc(Cl)nc2)nc1Cl [Example 243] | 195 to 199 °C |  | 
20 | COc1cc(OCc2cnccc2C(F)(F)F)ccc1-c1[nH]c(-c2ccc(F)nc2)nc1Cl [Example 257] | 133 to 153 °C |  | 
21 | COc1cc(OCc2ccc(Cl)cc2F)ccc1-c1[nH]c(-c2ccc(F)nc2)nc1Cl [Example 286] | 163 to 166 °C |  | 
22 | COc1cc(OCc2ccc(C#N)cn2)ccc1-c1c[nH]c(-c2ccc(Cl)nc2)n1 [Example 35] | 233 to 237 °C (dec.) |  | 
23 | COc1cc(OCc2ccnc(C(F)(F)F)c2)ccc1-c1[nH]c(-c2ccc(F)nc2)nc1Cl [Example 272] | 236 to 238 °C |  | 
